Laboratory results as given in patent US9884063B2, “Amido-substituted azole compounds” (Bayer Pharma Aktiengesellschaft, priority 2014, dated 2018).

What follows are compounds tested against T1, TNKS1 (Homo sapiens, UniProt O95271) (assay: Modified TNKS1 Assay 2 (auto-parsylation, [3H]-NAD+ SPA)). Details: 6 nM TNKS1, 96 well.
T1 sequence (O95271 1-1327): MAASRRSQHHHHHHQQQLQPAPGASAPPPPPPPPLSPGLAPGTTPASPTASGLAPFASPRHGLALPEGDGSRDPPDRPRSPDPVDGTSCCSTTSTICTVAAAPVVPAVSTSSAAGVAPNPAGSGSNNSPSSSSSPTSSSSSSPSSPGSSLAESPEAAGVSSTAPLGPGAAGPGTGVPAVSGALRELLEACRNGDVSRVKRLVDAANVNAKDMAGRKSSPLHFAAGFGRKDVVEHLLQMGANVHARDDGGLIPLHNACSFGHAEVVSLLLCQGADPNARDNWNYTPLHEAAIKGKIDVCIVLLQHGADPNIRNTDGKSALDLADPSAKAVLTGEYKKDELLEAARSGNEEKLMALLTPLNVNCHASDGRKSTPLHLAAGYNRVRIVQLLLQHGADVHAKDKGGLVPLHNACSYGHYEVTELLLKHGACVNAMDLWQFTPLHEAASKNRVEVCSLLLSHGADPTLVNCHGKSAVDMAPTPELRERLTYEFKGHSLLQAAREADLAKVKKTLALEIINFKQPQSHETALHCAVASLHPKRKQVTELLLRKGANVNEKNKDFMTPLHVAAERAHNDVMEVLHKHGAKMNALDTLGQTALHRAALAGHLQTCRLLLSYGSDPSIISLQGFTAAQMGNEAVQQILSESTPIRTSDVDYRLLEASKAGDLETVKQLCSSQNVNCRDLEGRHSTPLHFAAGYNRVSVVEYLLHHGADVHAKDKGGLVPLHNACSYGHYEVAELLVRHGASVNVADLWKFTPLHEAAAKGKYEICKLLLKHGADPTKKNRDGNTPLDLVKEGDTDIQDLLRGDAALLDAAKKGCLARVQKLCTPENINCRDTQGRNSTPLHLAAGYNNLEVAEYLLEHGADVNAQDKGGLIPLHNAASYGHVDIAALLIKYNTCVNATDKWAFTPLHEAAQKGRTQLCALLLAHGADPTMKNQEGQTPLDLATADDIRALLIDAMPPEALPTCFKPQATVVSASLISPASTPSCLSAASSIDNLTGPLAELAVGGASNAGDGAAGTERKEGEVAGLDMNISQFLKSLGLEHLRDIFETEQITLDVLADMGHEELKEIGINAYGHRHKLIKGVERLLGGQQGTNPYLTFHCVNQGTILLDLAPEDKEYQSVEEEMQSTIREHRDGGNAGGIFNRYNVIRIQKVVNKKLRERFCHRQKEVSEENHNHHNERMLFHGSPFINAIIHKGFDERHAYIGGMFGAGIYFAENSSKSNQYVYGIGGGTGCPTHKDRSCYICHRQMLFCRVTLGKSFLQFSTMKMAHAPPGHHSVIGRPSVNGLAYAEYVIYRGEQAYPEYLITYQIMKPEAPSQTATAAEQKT
Assay type: biochemical

SMILES	IC50 [µM]
COC(=O)c1nc[nH]c1C(=O)Nc1ccc(NC(=O)c2ccccc2Cl)c(OC)c1 [Example 98, methyl 5-({4-[(2-chlorobenzoyl)amino]-3-methoxyphenyl}carbamoyl)-1H-imidazole-4-carboxylate]	0.34
COC(=O)c1nc[nH]c1C(=O)Nc1ccc(NC(=O)c2ccc(F)cc2Cl)c(OC)c1 [Example 94, methyl 5-({4-[(2-chloro-4-fluorobenzoyl)amino]-3-methoxyphenyl}carbamoyl)-1H-imidazole-4-carboxylate]	0.44
COC(=O)c1nc[nH]c1C(=O)Nc1ccc(NC(=O)c2ccc(F)cc2)c(OC)c1 [Example 102, methyl 5-({4-[(4-fluorobenzoyl)amino]-3-methoxyphenyl}carbamoyl)-1H-imidazole-4-carboxylate]	> 10
CNC(=O)c1[nH]c(C(C)C)nc1C(=O)Nc1ccc(NC(=O)c2ccc(F)cc2Cl)cc1 [Example 106, N^4-{4-[(2-chloro-4-fluorobenzoyl)amino]phenyl}-2-isopropyl-N^5-methyl-1H-imidazole-4,5-dicarboxamide]	> 10
COC(=O)c1nc[nH]c1C(=O)Nc1ccc(NC(=O)c2ccccc2Cl)c(C)c1 [Example 86, methyl-5-({4-[(2-chlorobenzoyl)amino]-3-methylphenyl}carbamoyl)-1H-imidazole-4-carboxylate]	2.6

The next compounds have a lower IC50 than those just listed; values first:

IC50 [µM]	SMILES
0.25	CNC(=O)c1nc[nH]c1C(=O)Nc1ccc(NC(=O)c2ccccc2Cl)nc1 [Example 112, N^5-{6-[(2-chlorobenzoyl)amino]pyridin-3-yl}-N^4-methyl-1H-imidazole-4,5-dicarboxamide]
0.03	Cc1cc(NC(=O)c2[nH]cnc2C(=O)NCCN2CCCCC2)ccc1NC(=O)c1ccccc1Cl [Example 89, N^5-{4-[(2-chlorobenzoyl)amino]-3-methylphenyl}-N^4-[2-(piperidin-1-yl)ethyl]-1H-imidazole-4,5-dicarboxamide]
0.03	COc1cc(NC(=O)c2[nH]cnc2C(=O)NCCN(C)C)ccc1NC(=O)c1ccc(F)cc1Cl [Example 96, N^5-{4-[(2-chloro-4-fluorobenzoyl)amino]-3-methoxyphenyl}-N^4-[2-(dimethylamino)ethyl]-1H-imidazole-4,5-dicarboxamide]
0.06	COc1cc(NC(=O)c2[nH]cnc2C(=O)NCCN2CCCCC2)ccc1NC(=O)c1ccc(F)cc1Cl [Example 97, N^5-{4-[(2-chloro-4-fluorobenzoyl)amino]-3-methoxyphenyl}-N^4-[2-(piperidin-1-yl)ethyl]-1H-imidazole-4,5-dicarboxamide]
0.08	CNC(=O)c1nc[nH]c1C(=O)Nc1ccc(NC(=O)c2ccc(F)cc2Cl)c(OC)c1 [Example 95, N^5-{4-[(2-chloro-4-fluorobenzoyl)amino]-3-methoxyphenyl}-N^4-methyl-1H-imidazole-4,5-dicarboxamide]
0.05	COc1cc(NC(=O)c2[nH]cnc2C(=O)NCCN(C)C)ccc1NC(=O)c1ccccc1Cl [Example 100, N^5-{4-[(2-chlorobenzoyl)amino]-3-methoxyphenyl}-N^4-[2-(dimethylamino)ethyl]-1H-imidazole-4,5-dicarboxamide]
0.02	CN(C)CCNC(=O)c1nc[nH]c1C(=O)Nc1ccc(NC(=O)c2ccccc2Cl)nc1 [Example 113, N^5-{6-[(2-chlorobenzoyl)amino]pyridin-3-yl}-N^4-[2-(dimethylamino)ethyl]-1H-imidazole-4,5-dicarboxamide]
